# Measurements taken from US7230033B2, “Pest control compositions and methods for their use” (United States of America as represented by the Secretary of …, priority 2000, dated 2007).
# Tests used:
# [1] = test system: ticks, fleas, formicids and termites; assay: Persistence of biocidal activity in vials treated with 2% solutions (Example 5); format: in vivo; settings: at 11 weeks
# Protocol: (§1) Samples of the compounds listed below were obtained as described in Example 1, and screened for biocidal activities against nymphal Ixodes scapularis. In this example, 2% acetone solutions (wt/vol) of the compounds were applied to inner surfaces of 2-dram friction cap vials. Vials and caps were treated then allowed to dry for a minimum of 4 hours before placing 10 nymphs in each container. These same vials were used to challenge additional nymphs and adult I. scapularis ticks and adult Xenopsylla cheopis fleas through five weeks to observe any possible residual activity.
# Persistence of biocidal activity was determined for nootkatone and valencene-11,12-epoxide by using the vials as treated with the 2% solutions of Example 2. This bioassay employed groups of ticks, fleas, formicids and termites using a method similar to that described in Example 2. […] At 11 weeks, the biocidal activity began to dissipate below the 100% mortality level.
# I. scapularis nymphs = assay: Tick bioassay, treated 2-dram vials, probit analysis; format: in vivo, Ixodes scapularis; settings: for LC50 / LC90 / Slope: 24 h exposure; for LC50 / LC90: NE = not effective at concentrations tested; for Slope: probit
# Text: A control treated with acetone only was run with each series.
# For each time point, if ticks and fleas were incapable of movement, maintaining normal posture, leg coordination, ability to right themselves, or any signs of life, they were considered moribund or dead.
# Ae. aegypti adults = assay: Adult mosquito bottle bioassay; format: in vivo, Aedes aegypti; settings: for Slope: probit
# Protocol: (§2) Adult mosquitoes were tested using the bottle bioassay method of Brogden and McAllister (J. Am. Mosq. Control Assoc., 14:159–64, 1998) with minor modifications. Natural product extracts were two-fold serially diluted for a total of 8 concentrations ranging from 0.002% to 0.25% in 1.5 ml of acetone. Individual dilutions were added to 250 ml Wheaton glass bottles and capped. Bottles were manipulated to evenly coat all inner surfaces. The caps were removed and bottles were allowed to air-dry overnight. Once bottles were completely dry, 10–50 (in some tests 25–50) adult mosquitoes were aspirated into the bottles. Mosquitoes were held in the bottles for 24 h at 23° C. and 85% RH. Morbidity and mortality were recorded at 15, 30, 45, and 60 min and 24 hour intervals. One bottle for each replicate was treated with acetone only and served as a control. The dose-mortality data was evaluated with probit analysis, using the LdP Line software, to determine LC50 and LC90 values.
# Carvacrol was combined with compound 7, 9, or 10 at a 1:1 ratio (7.5 μl of carvacrol:7.5 μl of compound 7, 9, or 10 was added to 2,985 μl of acetone for a 0.5% solution, from which serial dilutions were made), and tested as previously described against nymphal ticks and adult and larval mosquitoes.
# [2] = test system: nymphal Ixodes scapularis; assay: Treated-vial biocidal screening with 2% acetone solutions (Example 2), tick nymphs; format: in vivo; settings: treated vials sat 72 h; arthropods added for the final 24 h
# Protocol: as §1
# (§3) Numbers in parentheses refer to length of treatment in terms of hours (h) or weeks (wk). Data is presented in terms of number killed/number tested. For test periods longer than 24 hours, the treated vials were allowed to sit for the stated period after drying (72 h, 4 wk, or 5 wk) and each group of arthropods was added to the vials for the final 24 h of the test period.
# [3] = test system: adult I. scapularis ticks; assay: Treated-vial biocidal screening with 2% acetone solutions (Example 2), adult ticks, residual; format: in vivo, Ixodes scapularis; settings: treated vials sat 4 wk; arthropods added for the final 24 h
# Protocol: as §1, §3
# [4] = test system: adult Xenopsylla cheopis fleas; assay: Treated-vial biocidal screening with 2% acetone solutions (Example 2), adult fleas, residual; format: in vivo; settings: treated vials sat 5 wk; arthropods added for the final 24 h
# Protocol: as §1, §3
# X. cheopis adults = assay: Flea bioassay, treated 2-dram vials, probit analysis; format: in vivo, Xenopsylla cheopis; settings: 24 h exposure; for Slope: probit
# Protocol: Med. […] A control treated with acetone only was run with each series. Tick and flea susceptibility was evaluated using a modification of the disposable pipette method of Barnard et al. (J. Econ. Entomol., 74:466-69, 1981) and Maupin and […]. Med. […] The inner surface of 2-dram friction cap vials were treated with the compound/acetone solution, or acetone only as a control, and left to air-dry overnight (see also, […] et al., J. Med. […] Three to 4 holes were made in the plastic cap to allow for air exchange. Nymphal ticks and adult fleas were then placed directly into the vials using forceps. […] For each time point, if ticks and fleas were incapable of movement, maintaining normal posture, leg coordination, ability to right themselves, or any signs of life, they were considered moribund or dead.
# Ixodes scapularis nymphs = assay: Residual activity, aged treated vials, ticks; format: in vivo; settings: for LC90, residual activity: NE = not effective
# Protocol: (§4) Briefly, groups of 10 nymphal I. scapularis and X. cheopis fleas were used in all tests (more than a total of 5,240 nymphs and 4,860 fleas were exposed to the compounds). The inner surface of 2-dram friction cap vials were treated with the compound/acetone solution, or acetone only as a control, and left to air-dry overnight (see also, Panella et al., J. Med. Entomol., 42(3):352-358, 2005. Three to 4 holes were made in the plastic cap to allow for air exchange. Nymphal ticks and adult fleas were then placed directly into the vials using forceps. Vials containing ticks or fleas were placed in desiccators for 24 h at 21° C. and 90% RH. Morbidity and mortality was recorded at 1, 2, 4, 8, and 24 h after initial exposure.
# Aedes aegypti adults = assay: Residual activity, aged treated bottles, mosquitoes; format: in vivo
# Protocol: as §2
# [5] = test system: ticks, fleas, and mosquitoes; assay: Residual activity, general statements (Examples 9, 17); format: in vivo; settings: ticks
# [6] = test system: Xenopsylla cheopis adults; assay: Residual activity, aged treated vials, fleas; format: in vivo
# Protocol: as §4
# [7] = test system: fourth-instar Aedes aegypti larvae; assay: Larval mosquito bioassay; format: in vivo; settings: Aedes aegypti larval mosquitoes; concentration of the 1 ml added to 150 ml water
# Protocol: Individual groups of 10 fourth-instar Aedes aegypti larvae were contained in 150 ml of water and exposed to […] of essential oils prepared by 2-fold serial dilutions ranging from 0.06%–5.0% in 1 ml of acetone. A control group of larvae were exposed to 1 ml of acetone only.
# It is important to note that larval mosquitoes are tested in their natural environment, i.e., in water. The particular assays used herein involved groups of 10 larval mosquitoes in 150 ml of water. The weight percentages reported for lethal concentration for larval mosquitoes are the weight percentages added to the 150 ml water (as opposed to the final percentage of the tested compound(s) in the 150 ml water). As one of skill in the art will appreciate, test compound(s) added to a volume of water (such as, 150 ml) can be dramatically diluted depending upon the water solubility of the tested compound. […] If the tested compound is an oil (such as, carvacrol, nootkatone, or 13-hydroxy-valencene), it most likely floats on the surface of the water.
# [8] = test system: Ixodes scapularis nymphal ticks; assay: Tick repellency bioassay; format: in vivo; settings: listed as Nootkatone (Compound 9)
# Text: One-hundred (100) μl of test compound was pipetted onto a cotton-tipped applicator mounted to the bottom center of a 1 dram glass shell vial using non-toxic modeling clay. A total of 8 concentrations were screened with doses ranging from 0.04–5.0%. Applicators treated with acetone only served as controls. A line was drawn around the perimeter of the vial immediate to the base of the treated cotton portion of the applicator. The area above the line was designated the “repellent zone”. The vial was allowed to air-dry 1 h before a single tick was introduced. Vials were covered with a single piece of mesh and fitted with a hollowed-out plastic cap to cover the opening of the vial; this prevented the tick from escaping but allowed for air exchange. Vials were breathed upon by investigators at 1 min intervals and a hand was placed over the test vials to provide stimuli for ticks to pass into the repellent zone. […] If the tick crossed over and remained in the “repellent zone” for ≧5 sec, the tick was deemed non-repelled by the test compound. Each test was replicated 10 times using a new tick for each test. Repellent activity was determined at 1, 2, 3, and 4 h after treatment. Probit analysis was used to determine repellent efficacy (RD50 and RD95).
# [9] = NE = not effective at concentrations tested
# [10] = 24 h exposure, NE = not effective at concentrations tested
# [11] = Ixodes scapularis nymphal ticks, alone, or 1:1 with carvacrol (in parenthesis)
# [12] = Aedes aegypti adult mosquitoes, alone, or 1:1 with carvacrol (in parenthesis)
# [13] = 1 h after compound applied to applicator
# [14] = 4 h after compound applied to applicator
structure (smiles),measurement,setting,value
"C[C@@H]1CCC=C2CCC(C3(C)CO3)C[C@]21C (stereo partly shown) [Compound 13, valencene-11,12-epoxide]",mortality level,[1],< 100%
same,LC50,I. scapularis nymphs,"21.219 percent concentration, wt:vol"
same,LC90,I. scapularis nymphs,"3713.114 percent concentration, wt:vol"
same,Slope,I. scapularis nymphs,0.571
same,Slope,Ae. aegypti adults; 24 h exposure,1.581
"C=C(C)C1CC=C2C=CCC(C)C2(C)C1 (stereo not shown) [Compound 6, Nootkatene]","I. scapularis nymphs (72 h), number killed/number tested",[2],4/5
same,"I. scapularis adults (4 wk), number killed/number tested",[3],0/5
same,"X. cheopis adults (5 wk), number killed/number tested",[4],0/5
same,LC50,I. scapularis nymphs,"0.011 percent concentration, wt:vol"
same,LC90,I. scapularis nymphs,"0.06 percent concentration, wt:vol"
same,Slope,I. scapularis nymphs,1.763
same,LC50,X. cheopis adults; [9],"0.017 percent concentration, wt:vol"
same,Slope,X. cheopis adults,2.022
same,LC50,Ae. aegypti adults; [10],"0.027 percent concentration, wt:vol"
same,Slope,Ae. aegypti adults; 24 h exposure,3.696
same,"Slope, residual activity",Ixodes scapularis nymphs; 1 week after treatment,0.533
same,"LC90, residual activity",Aedes aegypti adults; 1 week after treatment,"0.659 percent concentration, wt:vol"
same,"Slope, residual activity",Aedes aegypti adults; 1 week after treatment,1.833
same,residual activity,[5],did not demonstrate any residual activity after one week
"CC(C)=CCc1ccc(O)c(=O)cc1C(C)C [Compound 11, Nootkatin]","I. scapularis nymphs (72 h), number killed/number tested",[2],0/5
same,"I. scapularis adults (4 wk), number killed/number tested",[3],0/5
same,"X. cheopis adults (5 wk), number killed/number tested",[4],0/5
same,Slope,Ae. aegypti adults; 24 h exposure,1.327
"C=C(C)[C@@H]1CCC2=CC(=O)C[C@@H](C)[C@]2(C)C1 [Compound 9, Nootkatone]",LC90,I. scapularis nymphs,"0.0087 percent concentration, wt:vol"
same,Slope,I. scapularis nymphs,3.061
same,LC50 (1 h),I. scapularis nymphs; [11],0.016 % (wt:vol)
same,LC50 (24 h),I. scapularis nymphs; [11],0.0033 % (wt:vol)
same,LC90 (1 hr),I. scapularis nymphs; [11],0.331 % (wt:vol)
same,LC90 (24 h),I. scapularis nymphs; [11],0.0087 % (wt:vol)
same,LC50 (1 h),"I. scapularis nymphs; Ixodes scapularis nymphal ticks, alone, or 1:1 with carvacrol (in parenthesis), listed as compound 9",0.016 % (wt:vol)
same,LC90,X. cheopis adults; [9],"0.018 percent concentration, wt:vol"
same,Slope,X. cheopis adults,2.9
same,LC90,Ae. aegypti adults; [10],"0.021 percent concentration, wt:vol"
same,Slope,Ae. aegypti adults; 24 h exposure,2.845
same,LC50 (15 min),Ae. aegypti adults; [12],0.136 % (wt:vol)
same,LC50 (24 h),Ae. aegypti adults; [12],0.0075 % (wt:vol)
same,LC90 (15 min),Ae. aegypti adults; [12],0.453 % (wt:vol)
same,LC90 (24 h),Ae. aegypti adults; [12],0.021 % (wt:vol)
same,"Slope, residual activity",Ixodes scapularis nymphs; 1 week after treatment,1.304
same,"LC90, residual activity",Ixodes scapularis nymphs; 1 week after treatment,"0.08 percent concentration, wt:vol"
same,"Slope, residual activity",Ixodes scapularis nymphs; 2 weeks after treatment,2.649
same,"LC90, residual activity",Ixodes scapularis nymphs; 2 weeks after treatment,"0.027 percent concentration, wt:vol"
same,"Slope, residual activity",[6]; 1 week after treatment,1.633
same,"Slope, residual activity",[6]; 2 weeks after treatment,2.571
same,"Slope, residual activity",[6]; 4 weeks after treatment,3.135
same,"LC90, residual activity",Aedes aegypti adults; 1 week after treatment,"0.018 percent concentration, wt:vol"
same,"Slope, residual activity",Aedes aegypti adults; 1 week after treatment,4.336
same,"Slope, residual activity",Aedes aegypti adults; 2 weeks after treatment,4.014
same,"LC90, residual activity","Aedes aegypti adults; 2 weeks after treatment, NE = not effective","0.0088 percent concentration, wt:vol"
same,"Slope, residual activity",Aedes aegypti adults; 4 weeks after treatment,4.169
same,LC50 (1 h),[7],6.51 % (wt:vol)
same,LC50 (24 h),[7],1.574 % (wt:vol)
same,LC90 (1 hr),[7],22.644 % (wt:vol)
same,LC90 (24 h),[7],2.757 % (wt:vol)
same,Slope (±SEM),[8]; 1 h,1.326 (±0.345)
same,RD50,[8]; [13],0.101 % (wt:vol)
same,RD95,[8]; [13],1.758 % (wt:vol)
same,Slope (±SEM),[8]; 4 h,1.406 (±0.299)
same,RD50,[8]; [14],0.173 % (wt:vol)
same,RD95,[8]; [14],2.561 % (wt:vol)
same,residual activity,[5],considerable biological activity through the four week time period
